Experiments:
[1] = target: T1, M1 (Homo sapiens, UniProt P11229); assay: Compound Binding Profiles: M1; conditions: * = Estimated IC50
T1 sequence (P11229 1-460): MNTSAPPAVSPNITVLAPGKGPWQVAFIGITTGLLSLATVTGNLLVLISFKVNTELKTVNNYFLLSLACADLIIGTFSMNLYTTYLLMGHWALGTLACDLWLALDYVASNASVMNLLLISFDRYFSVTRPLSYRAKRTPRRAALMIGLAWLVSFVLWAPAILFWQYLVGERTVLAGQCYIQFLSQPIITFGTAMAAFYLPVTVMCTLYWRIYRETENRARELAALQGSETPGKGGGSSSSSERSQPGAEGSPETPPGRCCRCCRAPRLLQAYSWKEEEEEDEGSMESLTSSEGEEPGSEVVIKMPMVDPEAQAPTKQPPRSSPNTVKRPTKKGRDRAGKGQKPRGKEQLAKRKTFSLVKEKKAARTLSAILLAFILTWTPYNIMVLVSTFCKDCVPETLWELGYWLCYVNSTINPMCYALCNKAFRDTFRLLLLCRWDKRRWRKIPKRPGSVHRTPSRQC

[2] = target: H1 (Homo sapiens, UniProt P35367); assay: Compound Binding Profiles: H1; conditions: * = Estimated IC50
[3] = system: more than 70 tested receptors; conditions: versus 5-HT6
[4] = target: CYP2C19 (Homo sapiens, UniProt P33261); assay: CYP inhibition CYP2C19
[5] = target: T2, CYP1A2 (Homo sapiens, UniProt P05177); assay: CYP inhibition CYP1A2
T2 sequence (P05177 1-516): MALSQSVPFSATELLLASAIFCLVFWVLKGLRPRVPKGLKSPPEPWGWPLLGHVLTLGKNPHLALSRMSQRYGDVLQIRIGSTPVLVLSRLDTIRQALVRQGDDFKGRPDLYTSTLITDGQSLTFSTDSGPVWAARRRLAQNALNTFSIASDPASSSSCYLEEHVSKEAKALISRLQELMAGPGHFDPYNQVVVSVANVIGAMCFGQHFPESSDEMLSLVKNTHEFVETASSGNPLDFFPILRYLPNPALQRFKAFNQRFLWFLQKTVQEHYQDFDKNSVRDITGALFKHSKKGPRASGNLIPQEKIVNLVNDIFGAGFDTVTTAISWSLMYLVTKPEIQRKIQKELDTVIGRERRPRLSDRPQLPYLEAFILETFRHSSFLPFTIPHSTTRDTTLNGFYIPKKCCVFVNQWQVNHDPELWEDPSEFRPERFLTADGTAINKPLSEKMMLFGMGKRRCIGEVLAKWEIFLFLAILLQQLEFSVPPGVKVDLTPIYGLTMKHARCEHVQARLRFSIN

[6] = Food intake and body weight in mice, sub-chronic dosing; type: in vivo; conditions: sub-chronic dosing 10 and 30 mg/kg qd, i.p.
[7] = target: D2 (Homo sapiens, UniProt P14416); assay: Compound Binding Profiles: D2; conditions: * = Estimated IC50
[8] = target: 5HT2A (Homo sapiens, UniProt P28223); assay: Compound Binding Profiles: 5HT2A; conditions: * = Estimated IC50
[9] = target: T3, 5HT2C (Homo sapiens, UniProt P28335); assay: Compound Binding Profiles: 5HT2C; conditions: * = Estimated IC50
T3 sequence (P28335 33-458): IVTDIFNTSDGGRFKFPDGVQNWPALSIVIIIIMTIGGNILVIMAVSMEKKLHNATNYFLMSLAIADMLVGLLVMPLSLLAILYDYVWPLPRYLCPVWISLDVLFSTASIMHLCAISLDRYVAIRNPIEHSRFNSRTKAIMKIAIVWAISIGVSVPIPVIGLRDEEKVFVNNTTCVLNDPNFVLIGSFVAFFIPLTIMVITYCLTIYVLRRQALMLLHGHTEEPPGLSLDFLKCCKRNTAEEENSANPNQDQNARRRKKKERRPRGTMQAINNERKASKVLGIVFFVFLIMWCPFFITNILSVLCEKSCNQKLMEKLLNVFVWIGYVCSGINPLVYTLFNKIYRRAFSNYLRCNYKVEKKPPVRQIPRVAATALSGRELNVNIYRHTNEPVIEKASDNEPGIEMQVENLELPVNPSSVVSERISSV

[10] = Food intake and body weight in rats, sub-chronic dosing; type: in vivo; conditions: sub-chronic dosing 10 and 30 mg/kg qd, i.p.
[11] = Oral pharmacokinetics in dogs; conditions: dog, in vivo, oral administration 5 mg/kg

H1, sequence (P35367 whole entry): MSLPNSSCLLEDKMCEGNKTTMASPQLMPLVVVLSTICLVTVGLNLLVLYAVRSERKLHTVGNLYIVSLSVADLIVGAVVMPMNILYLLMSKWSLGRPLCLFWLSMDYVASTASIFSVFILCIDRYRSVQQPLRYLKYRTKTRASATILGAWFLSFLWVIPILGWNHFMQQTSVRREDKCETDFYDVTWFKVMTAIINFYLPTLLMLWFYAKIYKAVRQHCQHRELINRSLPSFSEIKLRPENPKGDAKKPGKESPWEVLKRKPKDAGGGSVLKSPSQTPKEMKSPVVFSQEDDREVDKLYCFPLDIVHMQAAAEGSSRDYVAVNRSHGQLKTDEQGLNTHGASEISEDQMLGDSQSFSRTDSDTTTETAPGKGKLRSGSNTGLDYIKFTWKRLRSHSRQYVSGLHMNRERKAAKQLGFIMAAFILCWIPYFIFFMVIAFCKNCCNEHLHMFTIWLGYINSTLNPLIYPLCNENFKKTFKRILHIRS
5HT2A, sequence (P28223 whole entry, species assumed): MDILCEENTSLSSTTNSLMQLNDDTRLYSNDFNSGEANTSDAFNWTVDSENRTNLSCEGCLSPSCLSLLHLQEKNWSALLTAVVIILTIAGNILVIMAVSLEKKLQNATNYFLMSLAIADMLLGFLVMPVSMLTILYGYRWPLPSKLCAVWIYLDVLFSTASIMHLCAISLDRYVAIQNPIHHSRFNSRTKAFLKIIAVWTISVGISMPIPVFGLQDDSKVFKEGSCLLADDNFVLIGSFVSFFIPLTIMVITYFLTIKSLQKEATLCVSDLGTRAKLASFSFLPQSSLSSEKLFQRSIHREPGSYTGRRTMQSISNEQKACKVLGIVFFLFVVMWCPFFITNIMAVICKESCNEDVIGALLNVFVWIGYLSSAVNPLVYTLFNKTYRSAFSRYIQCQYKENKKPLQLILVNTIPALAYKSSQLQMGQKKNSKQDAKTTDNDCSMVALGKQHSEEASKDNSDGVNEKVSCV
D2, sequence (P14416 whole entry): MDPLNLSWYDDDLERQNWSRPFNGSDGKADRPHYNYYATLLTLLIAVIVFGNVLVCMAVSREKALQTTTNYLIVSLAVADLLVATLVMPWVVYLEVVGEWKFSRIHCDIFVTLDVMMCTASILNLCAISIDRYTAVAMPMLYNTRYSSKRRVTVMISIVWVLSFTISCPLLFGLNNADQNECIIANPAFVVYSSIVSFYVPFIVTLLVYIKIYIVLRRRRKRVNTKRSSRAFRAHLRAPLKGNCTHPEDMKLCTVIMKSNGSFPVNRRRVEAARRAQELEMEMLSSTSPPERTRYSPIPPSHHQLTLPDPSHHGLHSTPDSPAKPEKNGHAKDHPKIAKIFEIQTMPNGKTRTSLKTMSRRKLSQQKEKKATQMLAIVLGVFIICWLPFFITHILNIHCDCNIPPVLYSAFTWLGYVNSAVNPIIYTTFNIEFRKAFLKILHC
CYP2C19, sequence (P33261 whole entry): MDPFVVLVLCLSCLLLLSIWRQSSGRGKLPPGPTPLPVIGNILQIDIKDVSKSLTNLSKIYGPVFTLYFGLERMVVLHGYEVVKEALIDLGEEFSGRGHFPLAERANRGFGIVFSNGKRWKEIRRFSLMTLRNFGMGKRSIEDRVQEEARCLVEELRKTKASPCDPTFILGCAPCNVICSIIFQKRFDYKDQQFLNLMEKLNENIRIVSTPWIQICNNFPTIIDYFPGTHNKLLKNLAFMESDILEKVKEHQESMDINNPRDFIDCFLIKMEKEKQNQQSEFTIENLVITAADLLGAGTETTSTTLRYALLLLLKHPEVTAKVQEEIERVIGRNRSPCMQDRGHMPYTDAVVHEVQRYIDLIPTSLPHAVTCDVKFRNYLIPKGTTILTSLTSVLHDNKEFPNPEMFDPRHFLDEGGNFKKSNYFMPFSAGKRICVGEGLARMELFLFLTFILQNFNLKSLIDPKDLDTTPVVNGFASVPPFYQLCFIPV

With `COc1cc(Cl)cc(C(C)Nc2cc(N3CCNCC3)ccc2S(C)(=O)=O)c1OC.Cl` (centres unmarked) [Compound A, [1-(5-Chloro-2,3-dimethoxy-phenyl)-ethyl]-(2-methanesulfonyl-5-piperazin-1-yl-phenyl)-amine hydrochloride] the IC50 [1] was 3.4 µM, the IC50 [2] was 22 µM and the “safety margin (selectivity) to more than 70 tested receptors” value [3] was > 100 fold. For the same compound, the IC50 [4] was > 7.5 µM, the IC50 [5] was > 7.5 µM and the body weight [6] was “significant reduction”. For the same compound, the food intake [6] was “significant reduction”, the IC50 [7] was 9 µM and the IC50 [8] was 2.5 µM. For the same compound, the IC50 [9] was 3.8 µM, the body weight [10] was “significant reduction” and the food intake [10] was “significant reduction”. For the same compound, the bioavailability ([11]; read-out: bioavailability F) was 81% and the half-life ([11]; read-out: half-life T1/2 (converted)) was 5 h.

Reference: US8604021B2, “Substituted arylamine compounds and methods of treatment” (priority 2005, dated 2013)
